Assays:
[1] = tested on: S. aureus MW2 membrane; assay: Propidium iodide-based membrane permeability; format: cell-based, Staphylococcus aureus; conditions: S. aureus MW2, 60 minutes
Experimental: 484 min at room temperature in the dark based on a previously established protocol (8). We added 90
485 µl of the dye/bacteria mixture to 10 μl of serially diluted 10× peptide concentration in black, 96-
486 well plates (Cat. no. 3904, Corning, NY, USA) and incubated the plates for 1 hour at room
487 temperature. We measured the fluorescence with excitation and emission wavelengths of 485 nm
488 and 525 nm, respectively in endpoint assay mode using a SpectraMax i3x (Molecular Devices,
489 CA, USA) fluorescence reader.
490 Propidium iodide-based membrane permeability
491 We used a propidium iodide (Thermo Fisher Scientific, MA, USA) fluorescence-based
492 bacterial permeation assay to establish membrane-oriented interactions with the designed peptides
493 based on a previously established protocol (8). We prepared exponential phase S. aureus MW2
494 bacteria and diluted to OD600 = 0.4 in PBS. We added PI dye (final concentration = 2 µM) to the
495 bacteria in 1:10 serial dilutions in black, 96-well plates (Cat. no. 3904, Corning, NY, USA) and
496 incubated the plates for 1 hour at room temperature. We then measured the fluorescence with an
497 excitation wavelength of 584 nm and an emission wavelength of 620 nm in endpoint assay mode
498 using a SpectraMax i3x (Molecular Devices, CA, USA) fluorescence reader.
501 To determine the ATP leakage potential of the peptides, we employed a luciferase-based
502 assay(18). In brief, we washed exponential phase of S. aureus MW2 bacteria three times with PBS
503 (pH 7.4) and adjusted the washed cells to OD600 = 0.4 in PBS. Following treatment of the bacteria
504 with 32 µg/ml of CIT-8 peptide at 37°C for 30 min, we centrifuged the cells at 14,000× g for 5
505 min. We transferred 50 µl of each supernatant fraction to black, clear-bottom, 96-well plates

[2] = tested on: VRSA (S. aureus VRS1) biofilm; assay: Biofilm viability assay on solid support (VRS1); format: cell-based, Staphylococcus aureus; conditions: for Bacterial load of 24 hour established biofilm on solid membrane: S. aureus VRS1, 24 h in PBS
[3] = tested on: S. aureus MW2 skin infection; assay: Skin-abraded murine infection, established infection model, bacterial load; format: in vivo, mice; parameters: Bacterial load from skin specimens, established infection model / bacterial load in skin, Sup. Fig. 12: unit not given here; conditions: for Reduction of S. aureus MW2 vs vehicle, established infection model: single dose 24 hours after inoculation, n = 8; for bacterial load in skin, Sup. Fig. 12: mice
Experimental: 599 In vivo murine skin infection and treatment
600 We used a topical skin-abraded murine infection model with minor modifications to test
601 the in vivo efficacy of the CIT-8 peptide (25). We performed all mouse studies following the
602 protocol approved by the Institutional Animal Care and Use Committee. In brief, we anesthetized
603 female C57BL/6 mice (6 weeks) (Jackson Laboratory, Bar Harbor, ME, USA) with ketamine-
604 xylazine (90 mg/kg ketamine and 10 mg/kg xylazine) via intraperitoneal injection. We shaved the
605 dorsal side of the mice in the middle of the back (area=2 cm2). To disrupt skin integrity, we tape-
606 stripped with Tensoplast® seven times in succession, replacing the tape each time, resulting in
607 visibly damaged skin. We infected the damaged skin area with 1 × 10^7 CFU of S. aureus MW2
608 (exponential phase bacteria in PBS) with an inoculum of 50 µl using a pipette tip. Ten minutes
609 (prophylactic model) and 24 h (established model) after bacterial inoculation, we applied 30 mg
610 of 1 and 2% (w/w) CIT-8 ointment in a white petroleum jelly base (Cat no. 19-090-843, Fisher
611 Scientific, MA, USA) to the skin. We also included animal groups treated with only petroleum
612 jelly or with 2% commercial mupirocin ointment as negative and positive controls, respectively.
613 For pain management, we used the analgesic buprenorphine SR (0.05 mg/kg).
614 After 24 h of treatment, we euthanized the animals, separated the skin from the underlying
615 fascia and muscle tissue, and excised about 2 cm2 of skin from the infected area. We ground the
616 skin in 1ml of PBS buffer (Gibco, MD, USA). We serially diluted 100 µl of the solution in PBS
617 and plated it on Remel™ TSA plates (Fisher, MA, USA) to estimate viable colony counts after 18
618 h of incubation at 37 °C. Further, we added 10 µl of EDTA-Free, protease inhibitor cocktail Set III
619 (Millipore Sigma, MA, USA) to 500 µl of the ground skin PBS solution for cytokine estimation.
620 The Cytokine Core, LLC (Indianapolis, IN, USA) performed the cytokine concentration analysis

With `CN[C@H](CC(C)C)C(=O)N[C@H]1C(=O)N[C@@H](CC(N)=O)C(=O)N[C@H]2C(=O)N[C@H]3C(=O)N[C@H](C(=O)N[C@H](C(=O)O)c4cc(O)cc(O)c4-c4cc3ccc4O)[C@H](O)c3ccc(c(Cl)c3)Oc3cc2cc(c3O[C@@H]2O[C@H](CO)[C@@H](O)[C@H](O)[C@H]2O[C@H]2C[C@](C)(N)[C@H](O)[C@H](C)O2)Oc2ccc(cc2Cl)[C@H]1O` [Vancomycin, reference compound] the “Propidium iodide fluorescence (membrane permeation)” value [1] was “did not induce fluorescence”, the “Bacterial load of 24 hour established biofilm on solid membrane” value (from here on “Bacterial load … on solid membrane”) ([2]; 10 μg/ml, replicate 1) was 40000000 and the “Bacterial load … on solid membrane” value ([2]; 10 μg/ml, replicate 2) was 40000000. The “Bacterial load … on solid membrane” value ([2]; 10 μg/ml, replicate 3) was 60000000, the “Bacterial load … on solid membrane” value ([2]; 10 μg/ml, replicate 4) was 60000000 and the “Bacterial load … on solid membrane” value ([2]; 10 μg/ml, replicate 5) was 20000000. The “Bacterial load … on solid membrane” value ([2]; 10 μg/ml, replicate 6) was 20000000.

With H-GLFKVIKKLLKVI-NH2 [CIT-8] the “Propidium iodide fluorescence (membrane permeation)” value [1] was “increased fluorescence compared with untreated controls”, the “Reduction of viable biofilm cells of VRSA in established biofilms” value ([2]; 40 μg/mL (abstract)) was 4 log10 and the “Reduction of VRSA biofilm burden on solid membrane” value ([2]; 40 μg/mL, 24 h established biofilm) was 3.8 logs. For the same compound, the “Bacterial load … on solid membrane” value ([2]; 4 μg/ml, replicate 1) was 4000000, the “Bacterial load … on solid membrane” value ([2]; 4 μg/ml, replicate 2) was 80000000 and the “Bacterial load … on solid membrane” value ([2]; 4 μg/ml, replicate 3) was 14000000. For the same compound, the “Bacterial load … on solid membrane” value ([2]; 4 μg/ml, replicate 4) was 40000000, the “Bacterial load … on solid membrane” value ([2]; 4 μg/ml, replicate 5) was 2000000 and the “Bacterial load … on solid membrane” value ([2]; 4 μg/ml, replicate 6) was 20000000. The “Bacterial load … on solid membrane” value ([2]; 40 μg/ml, replicate 1) was 16000, the “Bacterial load … on solid membrane” value ([2]; 40 μg/ml, replicate 2) was 6000 and the “Bacterial load … on solid membrane” value ([2]; 40 μg/ml, replicate 3) was 2400. The “Bacterial load … on solid membrane” value ([2]; 40 μg/ml, replicate 4) was 18000, the “Bacterial load … on solid membrane” value ([2]; 40 μg/ml, replicate 5) was 12000 and the “Bacterial load … on solid membrane” value ([2]; 40 μg/ml, replicate 6) was 2200. For the same compound, the “Bacterial load from skin specimens, established infection model” value (shortened to “Bacterial load from skin specimens”) ([3]; 1% ointment 24 hours after infection, animal 1) was 573476702, the “Bacterial load from skin specimens” value ([3]; 1% ointment 24 hours after infection, animal 2) was 722891566 and the “Bacterial load from skin specimens” value ([3]; 1% ointment 24 hours after infection, animal 3) was 990099010. For the same compound, the “Bacterial load from skin specimens” value ([3]; 1% ointment 24 hours after infection, animal 4) was 73752712, the “Bacterial load from skin specimens” value ([3]; 1% ointment 24 hours after infection, animal 5) was 440528634 and the “Bacterial load from skin specimens” value ([3]; 1% ointment 24 hours after infection, animal 6) was 407784986. The “Bacterial load from skin specimens” value ([3]; 1% ointment 24 hours after infection, animal 7) was 586080586, the “Bacterial load from skin specimens” value ([3]; 1% ointment 24 hours after infection, animal 8) was 58441558 and the “Reduction of S. aureus MW2 vs vehicle, established infection model” value ([3]; 1% w/w ointment) was 0.85 log. For the same compound, the “bacterial load in skin, Sup. Fig. 12” value ([3]; 1%, animal 1) was 3454231, the “bacterial load in skin, Sup. Fig. 12” value ([3]; 1%, animal 2) was 9594096 and the “bacterial load in skin, Sup. Fig. 12” value ([3]; 1%, animal 3) was 4268293. The “bacterial load in skin, Sup. Fig. 12” value ([3]; 1%, animal 4) was 37383178, the “bacterial load in skin, Sup. Fig. 12” value ([3]; 1%, animal 5) was 4592423 and the “bacterial load in skin, Sup. Fig. 12” value ([3]; 1%, animal 6) was 4992200. For the same compound, the “bacterial load in skin, Sup. Fig. 12” value ([3]; 1%, animal 7) was 5211726, the “bacterial load in skin, Sup. Fig. 12” value ([3]; 1%, animal 8) was 8092486 and the “Bacterial load from skin specimens” value ([3]; 2% ointment 24 hours after infection, animal 1) was 198248802. The “Bacterial load from skin specimens” value ([3]; 2% ointment 24 hours after infection, animal 2) was 54495913, the “Bacterial load from skin specimens” value ([3]; 2% ointment 24 hours after infection, animal 3) was 66006601 and the “Bacterial load from skin specimens” value ([3]; 2% ointment 24 hours after infection, animal 4) was 87431694. For the same compound, the “Bacterial load from skin specimens” value ([3]; 2% ointment 24 hours after infection, animal 5) was 13757524, the “Bacterial load from skin specimens” value ([3]; 2% ointment 24 hours after infection, animal 6) was 41237113 and the “Bacterial load from skin specimens” value ([3]; 2% ointment 24 hours after infection, animal 7) was 64923354. For the same compound, the “Bacterial load from skin specimens” value ([3]; 2% ointment 24 hours after infection, animal 8) was 70546737, the “Reduction of S. aureus MW2 vs vehicle, established infection model” value ([3]; 2% w/w ointment) was 1.8 log and the “bacterial load in skin, Sup. Fig. 12” value ([3]; 2%, animal 1) was 3143418. The “bacterial load in skin, Sup. Fig. 12” value ([3]; 2%, animal 2) was 1148325, the “bacterial load in skin, Sup. Fig. 12” value ([3]; 2%, animal 3) was 935065 and the “bacterial load in skin, Sup. Fig. 12” value ([3]; 2%, animal 4) was 898204. For the same compound, the “bacterial load in skin, Sup. Fig. 12” value ([3]; 2%, animal 5) was 917874, the “bacterial load in skin, Sup. Fig. 12” value ([3]; 2%, animal 6) was 1020408 and the “bacterial load in skin, Sup. Fig. 12” value ([3]; 2%, animal 7) was 1787044. The “bacterial load in skin, Sup. Fig. 12” value ([3]; 2%, animal 8) was 4694836.

Source: publication PMC12165799, “Antimicrobial peptide developed with machine learning sequence optimization targets drug resistant Staphylococcus aureus in mice” (The Journal of Clinical Investigation, 2025)
